Consider twelve molecules from ChEMBL document CHEMBL1201862, “PubChem BioAssay data set” (2004).

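Five concentrations, 48 hours, 96-well plates. The concentration for 50% growth inhibition is given as GI50.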 Activity calls are given as the source filed them. Rule as the data show it: active = GI50 up to about 1.1 µM and inactive = higher. Where only a bound is given, the exact number is not on record here.

Among the test systems are OVCAR-5; ACHN; RXF 393; SK-OV-3; MDA-MB-435; T47D; RPMI-8226; SF-268; NCI-H460; LOX IMVI; OVCAR-4; SF-539; SNB-75; MDA-N; HCC 2998; OVCAR-3; DU-145; HCT-116; K562; HOP-62.
Holding throughout (assay): DTP human tumour cell line panel, 48 h

Consider `C[C@]1(O)CC[C@H]2[C@@H]3CCc4cc(O)ccc4[C@H]3CC[C@@]21C`, for which the GI50 in the experiment with OVCAR-5 was 8.02 µM (inactive); in the experiment with ACHN, 16.6 µM (inactive); in the experiment with RXF 393 it was 0.889 µM (active); with SK-OV-3, 89.5 µM (inactive); with MDA-MB-435, 0.186 µM (active); with T47D, 38.5 µM (inactive). Further, the GI50 with RPMI-8226 was 0.687 µM (active); with SF-268, 3.46 µM (inactive); in the experiment on NCI-H460, 1.36 µM (inactive); in the experiment on LOX IMVI, 14.5 µM (inactive); with OVCAR-4 it was > 100 µM (inactive); with SF-539, 0.356 µM (active). Also, the GI50 was > 100 µM (inactive) in the experiment with SNB-75, 0.186 µM (active) with MDA-N and 0.233 µM (active) with HCC 2998.
With `COc1ccc(OC)c(C23CCCC(C2)N(C)CC3)c1` (stereo not given), the GI50 in the experiment with OVCAR-5 is 40 µM (inactive); in the experiment on ACHN, 26.9 µM (inactive); with OVCAR-3 it was 19.6 µM (inactive); in the experiment on RXF 393, 29.9 µM (inactive); in the experiment with DU-145 it was 32.7 µM (inactive); with HCT-116 it was 13.8 µM (inactive). Also, the GI50 is 20.1 µM (inactive) in the experiment with MDA-MB-435; 33.3 µM (inactive) in the experiment on T47D; 12.7 µM (inactive) with RPMI-8226; 44.6 µM (inactive) with SF-268; 19.2 µM (inactive) in the experiment on NCI-H460; 24.9 µM (inactive) with OVCAR-4. Further, the values for the GI50 in the experiment on MDA-N and in the experiment on K562 were 27.4 µM (inactive) and 17 µM (inactive), respectively.
On to `O=C1NC(=O)C(CC(C(=O)C(=O)Nc2ccccc2Cl)C(=O)c2ccc3ccccc3c2)C(=O)N1` (stereo not given), for which the GI50 in the experiment on OVCAR-5, in the experiment with ACHN, with OVCAR-3, with RXF 393, in the experiment on DU-145 and in the experiment on HCT-116 was > 100 µM (inactive) throughout. The GI50 with SK-OV-3, with MDA-MB-435, with HOP-62, in the experiment with SF-268, in the experiment on NCI-H460 and with LOX IMVI was > 100 µM (inactive) each time. In addition, the GI50 in the experiment on OVCAR-4, with SF-539, in the experiment on SNB-75, with MDA-N and with HCC 2998 was > 100 µM (inactive) in each case.
`COc1cc(/C=c2\sc3n(c2=O)C(c2ccc(Cl)cc2)C2=C(CCCC2C)N=3)cc(OC)c1OC` (stereo not given): the GI50 in the experiment on OVCAR-5, in the experiment with ACHN, with RXF 393, with DU-145, in the experiment on HCT-116 and in the experiment with SK-OV-3 was > 100 µM (inactive) each time. For the same molecule, the GI50 in the experiment with MDA-MB-435, with HOP-62, in the experiment with RPMI-8226, with SF-268, with LOX IMVI and with SNB-75 was > 100 µM (inactive) each time. Also, the GI50 with MDA-N and with K562 was > 100 µM (inactive) in each case.
`c1ccc(CSCCC(SCc2ccccc2)SCc2ccccc2)cc1`: the GI50 with ACHN, in the experiment on OVCAR-3, in the experiment on RXF 393, with DU-145, with HCT-116 and in the experiment with SK-OV-3 was > 10 µM (inactive) in each case. In addition, the GI50 in the experiment with HOP-62, in the experiment on T47D, in the experiment on RPMI-8226, in the experiment on SF-268, in the experiment on NCI-H460 and in the experiment with LOX IMVI was > 10 µM (inactive) in each case. Further, the GI50 with OVCAR-4, in the experiment with SF-539, in the experiment with SNB-75, in the experiment on MDA-N, with K562 and in the experiment on HCC 2998 was > 10 µM (inactive) throughout.
Take `O=CC1OC(=O)c2cc(O)c(O)c(O)c2-c2c(cc(O)c(O)c2O)C(=O)OC1C(O)C(O)CO` (stereo not given): the GI50 in the experiment with OVCAR-5 is > 100 µM (inactive); in the experiment with ACHN, 43.6 µM (inactive); in the experiment on OVCAR-3, 71 µM (inactive); in the experiment with RXF 393, > 100 µM (inactive); in the experiment with DU-145, > 100 µM (inactive); with HCT-116 it was 28.1 µM (inactive). Moreover, the GI50 with MDA-MB-435 was 18.3 µM (inactive); with HOP-62, 63.2 µM (inactive); in the experiment on RPMI-8226, 26.2 µM (inactive); in the experiment with SF-268, > 100 µM (inactive); in the experiment with NCI-H460 it was 28.8 µM (inactive); in the experiment with LOX IMVI, 15.4 µM (inactive). Besides, the GI50 in the experiment with OVCAR-4 was 17.4 µM (inactive); in the experiment with SF-539, > 100 µM (inactive); with SNB-75, > 100 µM (inactive); in the experiment on MDA-N it was 18.7 µM (inactive); in the experiment on K562 it was 21.1 µM (inactive); with HCC 2998, > 100 µM (inactive).
`COc1ccc(C2c3c(n(C)c(=O)n(C)c3=O)OC(N(C)C)(N(C)C)C2(F)F)cc1` (stereo not given): the GI50 in the experiment with OVCAR-5, with ACHN, with OVCAR-3, with RXF 393, in the experiment with DU-145 and with HCT-116 was > 100 µM (inactive) throughout. Moreover, the GI50 in the experiment with SK-OV-3, in the experiment on MDA-MB-435, with HOP-62, with T47D, in the experiment with RPMI-8226 and with SF-268 was > 100 µM (inactive) in each case. Besides, the GI50 with NCI-H460 was > 100 µM (inactive); with LOX IMVI it was > 100 µM (inactive); with OVCAR-4 it was > 100 µM (inactive); with SF-539 it was > 100 µM (inactive); in the experiment on SNB-75, > 100 µM (inactive); in the experiment on K562, 3.2 µM (inactive). Moreover, the GI50 in the experiment on HCC 2998 was > 100 µM (inactive).
Regarding `Cc1cnoc1/N=C1\C=C(O)C(=O)c2ccccc21`, the GI50 in the experiment on OVCAR-5 was 10.9 µM (inactive); with ACHN, 21.8 µM (inactive); in the experiment on OVCAR-3 it was 5.26 µM (inactive); in the experiment with DU-145, 18 µM (inactive); with HCT-116 it was 19.9 µM (inactive); in the experiment with SK-OV-3, > 100 µM (inactive). Besides, the GI50 in the experiment with MDA-MB-435 is 1.31 µM (inactive); in the experiment on HOP-62, 10 µM (inactive); in the experiment on T47D it was 27.9 µM (inactive); in the experiment with RPMI-8226 it was 15.4 µM (inactive); in the experiment with SF-268, 17.8 µM (inactive); with NCI-H460, 6.32 µM (inactive). Also, the GI50 with LOX IMVI was 5.26 µM (inactive); in the experiment with OVCAR-4, 20.4 µM (inactive); with SF-539, 21.4 µM (inactive); in the experiment with SNB-75, 10.4 µM (inactive); with MDA-N, 1.26 µM (inactive); in the experiment with K562 it was 1.73 µM (inactive).
Turning to `CO/N=C(/C)c1cccc(Nc2nc3ccc(Cl)cc3c3[nH]c4ccccc4c23)c1`, the GI50 in the experiment with OVCAR-5 is 7.31 µM (inactive); with ACHN it was 3.74 µM (inactive); in the experiment on OVCAR-3 it was 4.62 µM (inactive); in the experiment with RXF 393, 1.52 µM (inactive); with DU-145, 12.2 µM (inactive); in the experiment on HCT-116, 4.21 µM (inactive). The GI50 in the experiment with SK-OV-3 is 21.8 µM (inactive); in the experiment on MDA-MB-435, 8.57 µM (inactive); in the experiment with HOP-62, 11.7 µM (inactive); with T47D, 2.47 µM (inactive); in the experiment with RPMI-8226, 3.2 µM (inactive); in the experiment on SF-268, 13 µM (inactive). For the same molecule, the GI50 is 4.31 µM (inactive) in the experiment on NCI-H460; 11.2 µM (inactive) in the experiment with LOX IMVI; 15.6 µM (inactive) in the experiment on SF-539; 11.8 µM (inactive) in the experiment with MDA-N; 3.13 µM (inactive) with K562.
Take `Cc1ccc(S(=O)(=O)N2CCc3cc(O)c([N+](=O)[O-])cc32)cc1`: the GI50 in the experiment on ACHN, in the experiment with RXF 393, in the experiment with DU-145, with HCT-116, in the experiment with SK-OV-3 and in the experiment with MDA-MB-435 was > 100 µM (inactive) each time. For the same molecule, the GI50 with HOP-62, with T47D, in the experiment with SF-268, in the experiment with LOX IMVI, with OVCAR-4 and in the experiment on SF-539 was > 100 µM (inactive) throughout. For the same molecule, the GI50 with SNB-75 and in the experiment with MDA-N was > 100 µM (inactive) in each case.
Take `NS(=O)(=O)c1ccc(CNC(=S)NC(=O)Nc2ccc(Cl)c(Cl)c2)cc1`: the GI50 in the experiment with OVCAR-5 is 29 µM (inactive); with ACHN, 17.5 µM (inactive); in the experiment with RXF 393 it was 27.9 µM (inactive); with DU-145 it was 33.3 µM (inactive); with HCT-116, 17.5 µM (inactive); with SK-OV-3, 19.6 µM (inactive). The GI50 in the experiment with HOP-62 was 18.6 µM (inactive); with T47D, 18.1 µM (inactive); in the experiment on RPMI-8226, 16 µM (inactive); with SF-268, 21.7 µM (inactive); in the experiment with NCI-H460, 25.2 µM (inactive); in the experiment with LOX IMVI, 13.7 µM (inactive). For the same molecule, the GI50 in the experiment with OVCAR-4 was 31.5 µM (inactive); in the experiment on SF-539, 21.2 µM (inactive); in the experiment on SNB-75, 17.5 µM (inactive); in the experiment on MDA-N, 20 µM (inactive); with K562 it was 16.1 µM (inactive).
Take `COc1ccc(CCCNC(=O)c2cc(OC)c(OC)cc2CCO)cc1OC`: the GI50 with OVCAR-5, in the experiment with ACHN, in the experiment with OVCAR-3, in the experiment with RXF 393, in the experiment on DU-145 and with HCT-116 was > 100 µM (inactive) each time. Also, the GI50 in the experiment with SK-OV-3, in the experiment on MDA-MB-435, in the experiment with HOP-62, with T47D, with RPMI-8226 and in the experiment on SF-268 was > 100 µM (inactive) throughout. For the same molecule, the GI50 with NCI-H460, in the experiment with LOX IMVI, in the experiment on OVCAR-4, with SF-539, with SNB-75 and in the experiment on K562 was > 100 µM (inactive) in each case. Moreover, the GI50 with HCC 2998 is > 100 µM (inactive).
